Measurements: US20100093060A1, “GROWTH OF MICROORGANISMS IN CELLULOSIC MEDIA” (priority 2008, published 2010)
Residues, ends and D or L forms follow the SMILES beside them.

Legend:
[1] = Determination of Critical Micelle Concentration (surface tension, Wilhelmy plate); assay type: physicochemical; conditions: triple distilled water, pH 10, 25±1° C.
Protocol: Determination of Critical Micelle Concentration. […] Surface tension was measured at 25±1° C. using the Wilhelmy plate technique with a sandblasted platinum plate as the sensor coupled to a Cahn microbalance. The entire assembly was kept in a draft-free plastic cage at a temperature of 25±1° C.

[2] = test system: Gram-negative and Gram-positive bacteria; conditions: minimal antibacterial effects; typical range; cited from earlier work

Compound	Critical Micelle Concentration (CMC) [1] [mM]	minimum inhibitory concentration (MIC) [2] [µg/mL]
CCCCCCCCCCCC(O)CC(=O)N[C@@H](CCC(=O)O)C(=O)O (stereo partly drawn) [FA-Glu, β-hydroxy myristoyl glutamate]	1.3	
CCCCCCCCCCCCCC(=O)N[C@@H](CCC(=O)O)C(=O)O [myristoyl glutamate]	14.1	
CC(C)CCCCCCCCC[C@@H]1CC(=O)N[C@@H](CCC(=O)O)C(=O)N[C@@H](CC(C)C)C(=O)N[C@H](CC(C)C)C(=O)N[C@@H](C(C)C)C(=O)N[C@@H](CC(=O)O)C(=O)N[C@H](CC(C)C)C(=O)N[C@@H](CC(C)C)C(=O)O1 [surfactin] (HELM PEPTIDE1{E.L.[dL].V.D.[dL].L}|CHEM1{[CC(C)CCCCCCCCC[C@H](CC(=O)[*:1])O[*:2]]}$PEPTIDE1,CHEM1,1:R1-1:R1|PEPTIDE1,CHEM1,7:R2-1:R2$$$V2.0)		12 to 50
